Data taken from patent publication US6472530B1, “Benzo-fused dithiepino[6,5-b]pyridines, and related compositions and methods” (Ortho-McNeil Pharmaceutical, Inc., priority 1999, dated 2002).
pIC50: −log10 of the molar value.

These compounds were tested against T1, calcium channel (Oryctolagus cuniculus, UniProt P15381) (assay: Assay for Inhibition of Nitrendipine Binding (3H-nitrendipine, heart membranes)). Conditions: not given.
T1 construct: from tissue; host or cells: rabbit heart membrane preparation
T1 sequence (P15381 whole entry, other chains not shown): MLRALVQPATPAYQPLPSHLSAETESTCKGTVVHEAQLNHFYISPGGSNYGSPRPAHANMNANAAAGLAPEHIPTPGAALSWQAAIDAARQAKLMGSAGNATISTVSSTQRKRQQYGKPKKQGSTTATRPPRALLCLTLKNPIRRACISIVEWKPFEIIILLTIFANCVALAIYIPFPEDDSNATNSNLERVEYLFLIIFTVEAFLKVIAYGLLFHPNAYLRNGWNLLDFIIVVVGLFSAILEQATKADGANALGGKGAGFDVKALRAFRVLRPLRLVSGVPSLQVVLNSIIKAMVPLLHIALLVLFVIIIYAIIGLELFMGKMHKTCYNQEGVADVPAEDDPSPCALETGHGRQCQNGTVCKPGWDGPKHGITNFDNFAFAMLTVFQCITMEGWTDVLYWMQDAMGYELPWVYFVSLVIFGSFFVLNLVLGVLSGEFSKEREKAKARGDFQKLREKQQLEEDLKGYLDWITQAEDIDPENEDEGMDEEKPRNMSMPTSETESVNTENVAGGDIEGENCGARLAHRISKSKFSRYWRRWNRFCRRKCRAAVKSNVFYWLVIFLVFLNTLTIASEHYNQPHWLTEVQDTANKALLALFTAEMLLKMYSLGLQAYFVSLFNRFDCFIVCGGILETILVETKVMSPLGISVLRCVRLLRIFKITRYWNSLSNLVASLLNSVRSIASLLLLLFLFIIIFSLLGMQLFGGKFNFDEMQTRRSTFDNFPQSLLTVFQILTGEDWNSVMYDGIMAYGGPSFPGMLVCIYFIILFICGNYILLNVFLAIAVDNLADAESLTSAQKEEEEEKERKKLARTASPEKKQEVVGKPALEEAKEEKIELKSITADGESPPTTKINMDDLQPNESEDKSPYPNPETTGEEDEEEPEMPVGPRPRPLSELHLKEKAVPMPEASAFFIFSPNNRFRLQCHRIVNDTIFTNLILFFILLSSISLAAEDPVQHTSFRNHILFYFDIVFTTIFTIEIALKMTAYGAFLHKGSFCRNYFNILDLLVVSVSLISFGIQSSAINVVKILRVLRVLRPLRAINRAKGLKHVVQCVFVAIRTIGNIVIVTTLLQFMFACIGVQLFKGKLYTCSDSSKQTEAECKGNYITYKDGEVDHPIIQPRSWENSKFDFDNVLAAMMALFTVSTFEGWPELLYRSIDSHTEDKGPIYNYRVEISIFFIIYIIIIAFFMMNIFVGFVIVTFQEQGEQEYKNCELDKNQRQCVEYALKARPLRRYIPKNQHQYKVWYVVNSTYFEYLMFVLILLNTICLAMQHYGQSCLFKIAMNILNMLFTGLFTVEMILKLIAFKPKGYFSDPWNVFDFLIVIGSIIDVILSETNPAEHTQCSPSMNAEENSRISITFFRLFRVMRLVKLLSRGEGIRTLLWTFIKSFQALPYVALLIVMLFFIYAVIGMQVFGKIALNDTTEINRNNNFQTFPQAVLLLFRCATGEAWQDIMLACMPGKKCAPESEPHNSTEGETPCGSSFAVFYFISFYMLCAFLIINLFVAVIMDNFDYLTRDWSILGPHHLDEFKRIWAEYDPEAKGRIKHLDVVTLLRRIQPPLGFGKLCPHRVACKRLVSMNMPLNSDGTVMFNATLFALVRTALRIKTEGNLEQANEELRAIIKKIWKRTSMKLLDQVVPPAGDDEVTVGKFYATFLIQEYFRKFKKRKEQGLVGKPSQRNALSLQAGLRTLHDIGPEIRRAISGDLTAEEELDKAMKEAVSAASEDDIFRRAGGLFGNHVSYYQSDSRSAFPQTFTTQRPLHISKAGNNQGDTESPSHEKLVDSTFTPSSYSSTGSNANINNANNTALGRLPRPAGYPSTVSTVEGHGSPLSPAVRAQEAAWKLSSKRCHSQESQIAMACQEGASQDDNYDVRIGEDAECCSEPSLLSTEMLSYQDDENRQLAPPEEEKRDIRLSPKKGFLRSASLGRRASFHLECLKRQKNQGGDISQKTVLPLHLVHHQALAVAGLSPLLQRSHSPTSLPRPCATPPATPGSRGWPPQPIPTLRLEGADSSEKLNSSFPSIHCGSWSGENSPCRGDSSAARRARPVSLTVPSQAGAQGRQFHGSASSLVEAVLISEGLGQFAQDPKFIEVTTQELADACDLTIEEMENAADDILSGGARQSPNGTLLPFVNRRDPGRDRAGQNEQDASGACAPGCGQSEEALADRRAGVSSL
T1 sequence (P13806 27-960 partner limits assumed, other chains not shown): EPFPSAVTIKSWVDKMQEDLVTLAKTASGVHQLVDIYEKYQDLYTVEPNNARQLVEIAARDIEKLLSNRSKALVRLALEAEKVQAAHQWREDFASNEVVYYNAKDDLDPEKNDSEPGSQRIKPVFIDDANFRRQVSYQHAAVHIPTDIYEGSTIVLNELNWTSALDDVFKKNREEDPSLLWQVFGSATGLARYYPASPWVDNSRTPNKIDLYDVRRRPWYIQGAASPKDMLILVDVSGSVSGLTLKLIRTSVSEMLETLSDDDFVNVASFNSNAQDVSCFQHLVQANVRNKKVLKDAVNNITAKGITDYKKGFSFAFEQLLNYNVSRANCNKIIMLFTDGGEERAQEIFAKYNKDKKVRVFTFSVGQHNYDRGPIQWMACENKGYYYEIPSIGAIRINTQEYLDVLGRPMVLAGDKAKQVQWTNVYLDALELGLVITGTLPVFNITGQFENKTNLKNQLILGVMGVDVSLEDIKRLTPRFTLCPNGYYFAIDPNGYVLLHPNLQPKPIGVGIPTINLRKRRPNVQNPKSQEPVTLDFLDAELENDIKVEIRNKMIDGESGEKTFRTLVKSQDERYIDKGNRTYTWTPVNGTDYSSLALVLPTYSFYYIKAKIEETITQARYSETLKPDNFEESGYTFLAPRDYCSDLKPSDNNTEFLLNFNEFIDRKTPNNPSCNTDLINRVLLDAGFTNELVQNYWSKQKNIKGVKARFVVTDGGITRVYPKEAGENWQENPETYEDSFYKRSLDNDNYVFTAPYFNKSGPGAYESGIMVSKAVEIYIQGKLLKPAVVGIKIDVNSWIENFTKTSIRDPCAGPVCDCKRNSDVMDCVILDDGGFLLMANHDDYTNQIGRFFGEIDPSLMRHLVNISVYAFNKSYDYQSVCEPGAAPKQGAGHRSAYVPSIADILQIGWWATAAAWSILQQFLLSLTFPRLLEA
T1 sequence (P13806 961-1106 partner limits assumed, other chains not shown): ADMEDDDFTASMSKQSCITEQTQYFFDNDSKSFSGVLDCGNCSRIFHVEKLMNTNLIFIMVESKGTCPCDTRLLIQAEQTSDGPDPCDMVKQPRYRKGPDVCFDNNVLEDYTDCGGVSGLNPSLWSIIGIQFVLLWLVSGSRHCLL
Parameters: species or system rabbit
Procedure: Assay for Inhibition of Nitrendipine Binding
Female, New Zealand white rabbits (1-2 kg) are sacrificed by cervical dislocation, and the heart is immediately removed, cleaned and chopped into small pieces. The tissue is homogenized in 5×times volume of 0.05M Hepes buffer, pH 7.4. The homogenate is centrifuged at 4000 g for 10 minutes, and the supernatant is re-centrifuged at 42,000×g for 90 minutes. The resulting membrane pellet is resuspended (0.7 ml/g weight) in 0.05M Hepes, pH 7.4 and stored at […] until used. Each tube of the binding assay contains ^3H-nitrendipine (0.05-0.50 nM), buffer, membranes (0.10 ml), and test compound in a total volume of 1.0 ml. After 90 minutes at 4° C., the bound nitrendipine is separated from the unbound by filtration on Whatman GF/C filters. After rinsing, the filters are dried and counted in a liquid scintillation counter.
Non-specific binding of ^3H-nitrendipine (that amount bound in the presence of excess unlabelled nitrendipine) is subtracted from the total bound to obtain specifically bound radiolabeled nitrendipine. The amount of specifically bound nitrendipine in the presence of a test compound is compared to that amount bound in the absence of a compound. A percent displacement (or inhibition) can then be calculated.
`CC1=C(C(=O)OCCOC(=O)Cc2ccccc2)C(c2c(F)cccc2Cl)C2=C(CS(=O)(=O)c3ccccc3S2(=O)=O)N1` (stereo not shown) [Compound 30] gave a pIC50 of 6.96.

Same assay, conditions: Table 1, compounds of Formula I; 3H-nitrendipine displacement, rabbit heart membranes; read-out: Nitrendipine Binding Assay IC50
For `CC1=C(C(=O)OCCN(C)Cc2ccccc2)C(c2c(F)c(F)c(F)c(F)c2F)C2=C(CS(=O)(=O)c3ccccc3S2(=O)=O)N1` (stereo not shown) [Compound 12, 1H-[1,5]Benzodithiepino[3,2-b]pyridine-3-carboxylic acid, 4,11-dihydro-2-methyl-4-(pentafluorophenyl), 2-[methyl(phenylmethyl)amino]ethyl ester, 5,5,10,10-tetraoxide], the pIC50 was 7.68. With `COC(=O)C1=C(C)NC2=C(C1c1ccccc1Cl)S(=O)(=O)c1ccccc1S(=O)(=O)C2` (stereo not shown) [Compound 5, 1H-[1,5]Benzodithiepino[3,2-b]pyridine-3-carboxylic acid, 4-(2-chlorophenyl)-4,11-dihydro-2-methyl, methyl ester, 5,5,10,10-tetraoxide] the pIC50 was 8.05. `COC(=O)C1=C(C)NC2=C(C1c1cccc(C(F)(F)F)c1F)S(=O)(=O)c1ccccc1S(=O)(=O)C2` (stereo not shown) [Compound 13, 1H-[1,5]Benzodithiepino[3,2-b]pyridine-3-carboxylic acid, 4-[2-fluoro-3-(trifluoromethyl)phenyl]-4,11-dihydro-2-methyl, methyl ester, 5,5,10,10-tetraoxide] gave a pIC50 of 7.85. For `COC(=O)C1=C(C)NC2=C(C1c1c(F)c(F)c(F)c(F)c1F)S(=O)(=O)c1ccccc1S(=O)(=O)C2` (stereo not shown) [Compound 11, 1H-[1,5]Benzodithiepino[3,2-b]pyridine-3-carboxylic acid, 4,11-dihydro-2-methyl-4-(pentafluorophenyl), methyl ester, 5,5,10,10-tetraoxide], the pIC50 was 7.92.

Same assay, conditions: Table 2, compounds of Formula II; 3H-nitrendipine displacement, rabbit heart membranes; read-out: Nitrendipine Binding IC50
`CC1=C(C(=O)OCCOC(=O)c2ccccc2)C(c2c(F)cccc2Cl)C2=C(CS(=O)(=O)c3ccccc3S2(=O)=O)N1` (stereo not shown) [Compound 23, 1H-[1,5]benzodithiepino[3,2-b]pyridine-3-carboxylic acid, 4-(2-chloro-6-fluorophenyl)-4,11-dihydro-2-methyl-, 2-(benzoyloxy)ethyl ester, 5,5,10,10-tetraoxide] showed a pIC50 of 7.52. With `CC1=C(C(=O)OCCOC(=O)C2CCCCC2)C(c2c(F)cccc2Cl)C2=C(CS(=O)(=O)c3ccccc3S2(=O)=O)N1` (stereo not shown) [Compound 24, 1H-[1,5]benzodithiepino[3,2-b]pyridine-3-carboxylic acid, 4-(2-chloro-6-fluorophenyl)-4,11-dihydro-2-methyl-, 2-[(cyclohexylcarbonyl)oxy]ethyl ester, 5,5,10,10-tetraoxide] the pIC50 was 7.37. `CC1=C(C(=O)OCCNC(=O)c2ccccc2)C(c2c(F)cccc2Cl)C2=C(CS(=O)(=O)c3ccccc3S2(=O)=O)N1` (stereo not shown) [Compound 29, 1H-[1,5]benzodithiepino[3,2-b]pyridine-3-carboxylic acid, 4-(2-chloro-6-fluorophenyl)-4,11-dihydro-2-methyl-, 2-(benzoylamino)ethyl ester, 5,5,10,10-tetraoxide] was tested, and the pIC50 was 6.07. `CC(=O)OCCOC(=O)C1=C(C)NC2=C(C1c1c(F)cccc1Cl)S(=O)(=O)c1ccccc1S(=O)(=O)C2` (stereo not shown) [Compound 22, 1H-[1,5]benzodithiepino[3,2-b]pyridine-3-carboxylic acid, 4-(2-chloro-6-fluorophenyl)-4,11-dihydro-2-methyl-, 2-(acetyloxy)ethyl ester, 5,5,10,10-tetraoxide] was tested, and the pIC50 was 6.74. With `CC1=C(C(=O)OCc2oc(=O)oc2-c2ccccc2)C(c2c(F)cccc2Cl)C2=C(CS(=O)(=O)c3ccccc3S2(=O)=O)N1` (stereo not shown) [Compound 40] the pIC50 was 7.96.
